# Laboratory results taken from article PMC3722296 (PLoS ONE, 2013).
# Columns and labels:
# S. aureus ATCC25923 = assay type: cell-based, Staphylococcus aureus; conditions: MIC = 100% growth inhibition; MHB pH 7.3, 5×10^5 CFU/mL, 24 h 37°C, A620 nm; mean of triplicate (n = 3)
# Protocol: (§1) Different S. aureus strains described above were first pre-cultured aerobically at 37°C for 20 h in a Mueller-Hinton-Broth (MHB) medium, pH 7.3 (Difco Laboratories, Detroit, MI). Bacteria were suspended at absorbance of 0.001 at 620 nm in the MHB medium. […] Ten µl final volumes (10–200 µg/mL) of synthetic peptides (LL-37, bCAT, hCAT and bCTL) were incubated in microtitration plates with 90 µl of a mid-logarithmic phase culture of bacteria, with a starting absorbance of 0.001 at 620 nm. In the initial inoculi, bacteria were quantified by the agar plate spreading method which was 5×10^5 colony forming units (CFU)/mL. Tetracycline (10 mg/L) and Cefotaxime (0.1 mg/L) were used as positive controls. Microbial growth was assessed by the increase of absorbance after 24 h incubation at 37°C., [29] The A620 nm value of control cultures growing in the absence of peptide and antibiotics was defined as 100% growth. A620 nm zero with the antibiotics (Tetracycline and Cefotaxime) was taken as 100% inhibition. Absence of bacterial growth was verified by agar plate spreading. Each assay was performed in triplicates.
# (§2) The MIC values (µg/mL) are reported as means of three independent experiments. To determine significance, between different peptides (rows) and bacterial strains (columns), one way ANOVA was used. Overall significance and correlation was evaluated by 4×4 factorial ANOVA for independent samples. Significance was accepted at p≤0.05.
# S. aureus ATCC49775 = assay type: cell-based, Staphylococcus aureus; conditions: MIC = 100% growth inhibition; MHB pH 7.3, 5×10^5 CFU/mL, 24 h 37°C, A620 nm; mean of triplicate (n = 3)
# Protocol: as §1, §2
# S. aureus S1 (MRSA) = assay type: cell-based, Staphylococcus aureus; conditions: MIC = 100% growth inhibition; MHB pH 7.3, 5×10^5 CFU/mL, 24 h 37°C, A620 nm; mean of triplicate (n = 3)
# Protocol: (§3) S1 was isolated from the blood of a patient and S2 was isolated from the sputum of a neonate. After isolation and identification, S. aureus strains were assessed for their susceptibility to various antibiotics, using the agar disc diffusion method. S1 was found Methicillin resistant (MRSA) and is also resistant to Amoxicillin, Oxacillin, Amikacin, Tobramycin, Fluoroquinolones, Erythromycin and Clindamycin. However, it was susceptible to Gentamicin, Synercid, Co-trimoxazole, Rifampicin, Fusidic acid, Vancomycin, Teicoplanin and Linezolid.
# as §1, §2
# S. aureus S2 (MSSA) = assay type: cell-based, Staphylococcus aureus; conditions: MIC = 100% growth inhibition; MHB pH 7.3, 5×10^5 CFU/mL, 24 h 37°C, A620 nm; mean of triplicate (n = 3)
# Protocol: as §3, §1, §2
# [1] = tested on: S. aureus metallo-protease aureolysin; conditions: cited from earlier work
# From the text: Staphylococcus aureus is the most frequently isolated pathogen in Gram-positive sepsis, often involved in blood clotting disorders and destruction of endocardial tissue. S. aureus has developed several mechanisms to avoid immune response including resistance to AMPs, [13] impairment of phagocyte recruitment, [14] escape from neutrophil extracellular traps, [15] interference with complement, [16] neutrophil lysis, resistance to oxidative burst and non-specific binding and degradation of immunoglobulins. The AMPs evasion mechanisms deployed by S. aureus include prote ...
smiles,measurement,setting,value
"CC[C@H](C)[C@H](NC(=O)[C@H](CCCCN)NC(=O)[C@H](CCC(=O)O)NC(=O)[C@H](CCCCN)NC(=O)[C@H](CO)NC(=O)[C@H](CCCCN)NC(=O)[C@H](CCCNC(=N)N)NC(=O)[C@H](Cc1ccccc1)NC(=O)[C@H](Cc1ccccc1)NC(=O)[C@H](CC(=O)O)NC(=O)CNC(=O)[C@H](CC(C)C)NC(=O)[C@@H](N)CC(C)C)C(=O)NCC(=O)N[C@@H](CCCCN)C(=O)N[C@@H](CCC(=O)O)C(=O)N[C@@H](Cc1ccccc1)C(=O)N[C@@H](CCCCN)C(=O)N[C@@H](CCCNC(=N)N)C(=O)N[C@H](C(=O)N[C@H](C(=O)N[C@@H](CCC(N)=O)C(=O)N[C@@H](CCCNC(=N)N)C(=O)N[C@H](C(=O)N[C@@H](CCCCN)C(=O)N[C@@H](CC(=O)O)C(=O)N[C@@H](Cc1ccccc1)C(=O)N[C@@H](CC(C)C)C(=O)N[C@@H](CCCNC(=N)N)C(=O)N[C@@H](CC(N)=O)C(=O)N[C@@H](CC(C)C)C(=O)N[C@H](C(=O)N1CCC[C@H]1C(=O)N[C@@H](CCCNC(=N)N)C(=O)N[C@H](C(=O)N[C@@H](CCC(=O)O)C(=O)N[C@@H](CO)C(=O)O)[C@@H](C)O)C(C)C)[C@@H](C)CC)C(C)C)[C@@H](C)CC [LL-37, reference compound]",MIC,S. aureus ATCC25923,30 µg/mL
same,MIC,S. aureus ATCC49775,30 µg/mL
same,MIC,S. aureus S1 (MRSA),30 µg/mL
same,MIC,S. aureus S2 (MSSA),35 µg/mL
same,cleavage by aureolysin,[1],cleave and inactivate
